Columns and labels:
Type in all cases: functional
Staphylococcus aureus [1] = assay: Antimicrobial activity against Staphylococcus aureus 85
Staphylococcus aureus [2] = assay: Antimicrobial activity against Staphylococcus aureus ATCC 105487
Enterococcus faecalis = assay: Antimicrobial activity against Enterococcus faecalis ATCC 29212
[3] = test system: Mycobacterium tuberculosis; assay: Antimicrobial activity against Mycobacterium tuberculosis H37Rv
[4] = test system: Mycobacterium tuberculosis; assay: Antimicrobial activity against Mycobacterium tuberculosis H160
Escherichia coli = assay: Antimicrobial activity against Escherichia coli ATCC 25922
Staphylococcus aureus [5] = assay: Antimicrobial activity against Staphylococcus aureus 52
Kluyveromyces marxianus = assay: Antimicrobial activity against Candida pseudotropicalis
Bacillus subtilis = assay: Antimicrobial activity against Bacillus subtilis ATCC 6633
Pseudomonas aeruginosa = assay: Antimicrobial activity against Pseudomonas aeruginosa ATCC 27753
Staphylococcus aureus [6] = assay: Antimicrobial activity against Staphylococcus aureus ATCC 25923
Candida albicans = assay: Antimicrobial activity against Candida albicans
Staphylococcus aureus [7] = assay: Antimicrobial activity against Staphylococcus aureus 87
[8] = test system: Mycobacterium tuberculosis; assay: Antimicrobial activity against Mycobacterium tuberculosis H190

Measured: MIC

CCCCC/C=C/C/C=C/CCCCCCCC(=O)OC(COC(=O)CCCCCCC)CO[C@@H]1O[C@H](CO)[C@@H](O)[C@H](O)[C@H]1O (mixture of isomers)
128 µg/mL: [4] | Bacillus subtilis
64 µg/mL: [3] | Staphylococcus aureus [7] | [8]
> 128 µg/mL: Staphylococcus aureus [1] | Staphylococcus aureus [2] | Enterococcus faecalis | Escherichia coli | Staphylococcus aureus [5] | Kluyveromyces marxianus | Pseudomonas aeruginosa | Staphylococcus aureus [6] | Candida albicans

O=C(O)c1cn(C2CC2)c2cc(N3CCNCC3)c(F)cc2c1=O [CIPROFLOXACIN]
> 4 µg/mL: Staphylococcus aureus [5]
0.5 µg/mL: Staphylococcus aureus [1] | [3] | [4] | Staphylococcus aureus [6] | Staphylococcus aureus [7] | [8]
1 µg/mL: Enterococcus faecalis | Pseudomonas aeruginosa
0.25 µg/mL: Staphylococcus aureus [2] | Bacillus subtilis

CCCCCCCCCC(=O)OCC(CO[C@@H]1O[C@H](CO)[C@@H](O)[C@H](O)[C@H]1O)OC(=O)CCCCCCCCC (mixture of isomers)
64 µg/mL: [4] | Staphylococcus aureus [7] | [8]
> 128 µg/mL: Staphylococcus aureus [1] | Staphylococcus aureus [2] | Enterococcus faecalis | Escherichia coli | Staphylococcus aureus [5] | Kluyveromyces marxianus | Bacillus subtilis | Pseudomonas aeruginosa | Staphylococcus aureus [6] | Candida albicans
128 µg/mL: [3]

CCCCCCCC/C=C/CCCCCCCC(=O)OCC(CO[C@@H]1O[C@H](CO)[C@@H](O)[C@H](O)[C@H]1O)OC(=O)CCCCCCC/C=C/CCCCCCCC (mixture of isomers)
> 128 µg/mL: Staphylococcus aureus [1] | Staphylococcus aureus [2] | Enterococcus faecalis | [3] | [4] | Escherichia coli | Staphylococcus aureus [5] | Kluyveromyces marxianus | Bacillus subtilis | Pseudomonas aeruginosa | Staphylococcus aureus [6] | Candida albicans | Staphylococcus aureus [7] | [8]

CCCCCCCCCCCCCC(=O)OCC(CO[C@@H]1O[C@H](CO)[C@@H](O)[C@H](O)[C@H]1O)OC(=O)CCCCCCCCCCCCC (some centres undefined)
> 128 µg/mL: Staphylococcus aureus [1] | Staphylococcus aureus [2] | Enterococcus faecalis | [3] | [4] | Escherichia coli | Staphylococcus aureus [5] | Kluyveromyces marxianus | Bacillus subtilis | Pseudomonas aeruginosa | Staphylococcus aureus [6] | Candida albicans | Staphylococcus aureus [7] | [8]

CC/C=C/C/C=C/C/C=C/CCCCCCCC(=O)OC(COC(=O)CCCCCCCCC)CO[C@@H]1O[C@H](CO)[C@@H](O)[C@H](O)[C@H]1O (mixture of isomers)
64 µg/mL: Staphylococcus aureus [1]
> 128 µg/mL: Staphylococcus aureus [2] | Enterococcus faecalis | [3] | [4] | Escherichia coli | Staphylococcus aureus [5] | Kluyveromyces marxianus | Bacillus subtilis | Pseudomonas aeruginosa | Staphylococcus aureus [6] | Candida albicans | [8]
32 µg/mL: Staphylococcus aureus [7]

CCCCCCCC/C=C/CCCCCCCC(=O)OC(COC(=O)CCCCCCC)CO[C@@H]1O[C@H](CO)[C@@H](O)[C@H](O)[C@H]1O (mixture of isomers)
128 µg/mL: Bacillus subtilis
> 128 µg/mL: Staphylococcus aureus [1] | Staphylococcus aureus [2] | Enterococcus faecalis | Escherichia coli | Staphylococcus aureus [5] | Kluyveromyces marxianus | Pseudomonas aeruginosa | Staphylococcus aureus [6] | Candida albicans
64 µg/mL: [3] | [4] | Staphylococcus aureus [7] | [8]

CCCCCCCC/C=C/CCCCCCCC(=O)OC(COC(=O)CCCCCCCCC)CO[C@@H]1O[C@H](CO)[C@@H](O)[C@H](O)[C@H]1O (mixture of isomers)
8 µg/mL: Staphylococcus aureus [6]
> 128 µg/mL: Staphylococcus aureus [2] | Enterococcus faecalis | [3] | [4] | Escherichia coli | Staphylococcus aureus [5] | Kluyveromyces marxianus | Pseudomonas aeruginosa | Candida albicans | Staphylococcus aureus [7] | [8]
128 µg/mL: Staphylococcus aureus [1]
32 µg/mL: Bacillus subtilis

Reference: ChEMBL document CHEMBL1144555, “Chemoenzymatic synthesis and antimicrobial activity evaluation of monoglucosyl diglycerides” (2007)
